{"source": "paper PMC8216436", "about": "“Molecular docking and statistical optimization of taurocholate-stabilized galactose anchored bilosomes for the enhancement of sofosbuvir absorption and hepatic relative targeting efficiency” (Drug Delivery, 2020)", "origin": "cited, not measured here", "key": {"[1]": {"conditions": "2017"}, "P-glycoprotein (P-gp)": {"test_system": "P-glycoprotein (P-gp)", "set-up": "method as in Shen et al., 2019", "conditions": "efflux from GIT membrane cells and hepatocytes; ref Shen et al., 2019"}, "[2]": {"conditions": "oral, ref Rodríguez-Torres, 2013, Kirby et al., 2015, Cuenca-Lopez et al."}}}
{"smiles": "CC(C)OC(=O)[C@H](C)N[P@](=O)(OC[C@H]1O[C@@H](n2ccc(=O)[nH]c2=O)[C@](C)(F)[C@@H]1O)Oc1ccccc1", "note": "[Sofosbuvir]", "values": [{"measurement": "biopharmaceutics classification system class", "setting": "high solubility and low permeability, ref Kirby et al., 2015", "value": "class III"}, {"measurement": "partition coefficient", "setting": "ref Amidon et al., 1995", "value": "about 1.6"}, {"measurement": "solubility", "setting": "ref Amidon et al., 1995", "value": "≥ 2000", "unit": "µg/mL"}, {"measurement": "pKa", "setting": "weak acid, ref Amidon et al., 1995", "value": 9.6}, {"measurement": "administered dose absorbed through the portal circulation", "setting": "[1]; [2]", "value": 36.4, "unit": "%"}, {"measurement": "hepatic availability of the administered dose", "setting": "[1]; [2]", "value": 26.94, "unit": "%"}, {"measurement": "hepatic extraction", "setting": "[1]; [2]", "value": 74, "unit": "%"}, {"measurement": "volume of distribution", "setting": "[1]; ref Bhatia et al., 2014, Reznik & Ashby", "value": 127, "unit": "L"}, {"measurement": "P-glycoprotein (P-gp) substrate", "setting": "P-glycoprotein (P-gp)", "value": "substrate"}]}
